Patent US20250197363A1, “THIADIAZOLE COMPOUND, AND PHARMACEUTICAL COMPOSITION FOR PREVENTING OR TREATING INFLAMMATORY DISEASES, INCLUDING SAME” (Cureverse Incorporated, priority 2022, published 2025)

Columns and labels:
[1] = biological target: PPARδ ligand-binding domain (LBD) (Homo sapiens (Human), UniProt Q03181); experiment: PPARδ activation, TR-FRET coactivator peptide recruitment (enzyme activity EC50); format: biochemical; conditions: GST-PPARδ LBD 5 nM, read-out: Enzymatic activity (EC50)
IL-6 = IL-6 secretion, cytometric bead array; format: cell-based; conditions: LPS-stimulated Raw264.7, 24 hours; 12 μM, 25 μM, 50 μM
From the text: (§1) The supernatant was dispensed using the same method as used for measuring NO. High amounts of TNF-α and IL-6 in the supernatant were quantified using the multiplex bead-based immunoassay (BD™ Cytometric Bead Array) system and flow cytometry (BD Biosciences).
(§2) LPS, well known as an endotoxin present in the outer cell membrane of Gram-negative bacteria, stimulates macrophages or monocytes to promote the secretion of inflammatory cytokines such as tumor necrosis factor-α (TNF-α), interleukin-1l (IL-1), and interleukin-6 (IL-6). Accordingly, in order to analyze the effect of the compound of Example 1 on inhibiting cytokine secretion, RAW264.7 cells were cultured for 24 hours by adding 1 mg/mL of LPS and the compound of Example 1 at concentrations of 0, 12 μM, 25 μM, and 50 μM, and the concentrations of IL-6 and TNFα in the culture supernatant were measured.

[2] = tested on: LPS-stimulated Raw264.7 cells; experiment: Nitric oxide (NO) production, Griess reagent; format: cell-based; conditions: LPS-stimulated Raw264.7, 24 hours
Protocol: The concentration of NO was measured using the nitrite concentration in the culture medium with the Griess reagent system (Promega). Raw264.7 cells were adjusted to 2.5×10^5 cells/mL using DMEM medium, inoculated into 24-well plates, and pre-cultured for 20 hours in a 5% CO2 incubator. The cells were treated with […] of LPS and various concentrations of the example compounds and recultured for 24 hours. After obtaining the supernatant of the culture medium, the NO concentration was measured using the Griess reagent system according to the protocol provided by the manufacturer. The absorbance was measured at 540 nm using a microplate reader [BMG Labtech (located in Offenburg, Germany)]. The concentration of NO in the cell culture medium was calculated by comparing it with a standard curve for each concentration of sodium nitrite (NaNO2).
1 mg/mL lipopolysaccharide (LPS) and the compounds of Example 1 at concentrations of 0, 12 μM, 25 μM, and 50 μM were added to Raw264.7 cells, cultured for 24 hours, and changes in NO concentration in the upper layer of the culture were analyzed.

NF-κB = experiment: NF-κb promoter-luciferase assay; format: cell-based; conditions: LPS-treated Raw264.7/NF-κb-luciferase cells; 12 μM, 25 μM, 50 μM
Protocol: Raw264.7/NF-kb-luc cells were treated with 1 mg/mL LPS and various concentrations of compounds using the same method as used for measuring NO. 16 hours later, after adding the D-luciferin solution to the cells, luminescence images were obtained using the IVIS Lumina III. Quantification of the luminescence images was performed using Living Imaging software.
Nuclear factor-kappa B (NF-κB), which plays an important role in inflammatory responses, is a transcription factor that regulates the synthesis of various cytokines, chemokines, and growth factors. NFκB is composed of p50 and p65, enters the nucleus, acts as a transcription factor, and synthesizes iNOS, COX-2, and inflammation-related cytokines, and generally binds to the inhibitor NF-κBα (IκBα) in the cytoplasm, thereby inhibiting the action of NF-κB. In order to confirm whether NF-κb-related cell signaling induced in Raw264.7 cells was affected by the compound of Example 1, NF-κb promoter-luciferase analysis and pIKKαβ expression change analysis were performed in Raw264.7 cells using 1 mg/mL LPS and the compound of Example 1 at concentrations of 0, 12 μM, 25 μM, and 50 μM.

pIKKαβ = pIKKαβ (Mus musculus (Mouse), UniProt O88351+Q60680); experiment: pIKKαβ protein expression, Western blot; format: cell-based; conditions: LPS-stimulated Raw264.7; 12 μM, 25 μM, 50 μM
Protocol: (§3) The cells were washed twice with cold PBS and lysed with RIPA buffer (Roche) containing a complete protease inhibitor cocktail. Protein concentration was quantified using the BCA protein assay kit (Pierce, IL, USA), and 30 μL of lysate was separated by 10% SDS-PAGE. The separated proteins were transferred to a polyvinylidene difluoride (PVDF) membrane (Biorad, CA, USA) at 70 mA for 1 hour and 30 minutes, then blocked with tris-buffered saline (TBST; pH 7.5) containing 50 mg/mL skim milk at room temperature for 2 hours. As antibodies to examine the expression levels of iNOS and pIKKαβ, anti-iNOS and pIKKαβ were used, diluted 1:1000 and reacted at room temperature for 2 hours, followed by washing three times with TBST. As secondary antibodies, horseradish peroxidase (HRP)-conjugated anti-mouse IgG and anti-rabbit IgG were diluted 1:2000 and reacted at room temperature for 1 hour, followed by washing three times with TBST. Peroxidase activity was detected using ECL-Plus according to the manufacturer's protocol.
Nuclear factor-kappa B (NF-κB), which plays an important role in inflammatory responses, is a transcription factor that regulates the synthesis of various cytokines, chemokines, and growth factors. […]

TNF-α = TNF-α secretion, cytometric bead array; format: cell-based; conditions: LPS-stimulated Raw264.7, 24 hours; 12 μM, 25 μM, 50 μM
From the text: as §1, §2

RAW 264.7 cells = experiment: Cytotoxicity, CCK-8 assay; format: cell-based; conditions: Raw264.7 cells; 12 μM, 25 μM, 50 μM
Protocol: To evaluate the cytotoxicity of the sample, cell proliferation was tested using a cell counting kit [CCK-8; Dojindo Laboratories (Tokyo, Japan)]. RAW 264.7 cell 1×10^4 cells/mL were dispensed into a well plate, and after pre-culturing for 20 hours, […] of LPS and example compounds were added at different concentrations and cultured for 24 hours in an incubator at 37° C. and 5% CO2. After culturing, 10 μl CCK-8 reagent was added and recultured for 1 to 2 hours, and the absorbance was measured. The absorbance was measured at 450 nm using a microplate reader [BMG Labtech (located in Offenburg, Germany)].
In order to evaluate the cytotoxicity of the compound of Example 1, Raw264.7 cells, a macrophage cell line, were treated with the compound of Example 1 at concentrations of 0, 12 μM, 25 μM, and 50 μM, respectively, and then CCK8 assay was performed according to <Experiment Method> 3 above. […] Specifically, cell proliferation was similar to that of the vehicle group even at a concentration of up to 50 μM, and no significance was detected.

[3] = tested on: macrophage infiltration into carrageenan-injected sole; experiment: Macrophage tracking by fluorescence imaging in carrageenan-induced acute inflammation; format: in vivo, mouse; conditions: C57BL/6 mice, 50 mg/kg oral, 6 hours after inducing inflammation, versus vehicle group
Protocol: 2 mL of thioglycollate medium (BD, USA) was injected into the abdominal cavity of a C57Bl/6 mouse, and three days later, the mouse was cervically dislocated, and 8 mL of Dulbecco's modified Eagle's medium (DMEM) was injected into the abdominal cavity to collect cells. After centrifugation, the cells were suspended in DMEM containing 10% fetal bovine serum (FBS) and 1% penicillin-streptomycin and cultured in a 5% CO2 incubator at 37° C. for 2 hours. Non-adherent cells were removed, and the remaining cells were used for experiments.
The acute anti-inflammatory activity of the example compound was evaluated using a macrophage tracking technique with fluorescence imaging. Macrophages extracted from the mouse abdominal cavity were labeled with Vybrant™ DiD Cell-Labeling Solution and then administered to the mouse via intravenous injection. The next day, 50 mg/kg of the example compound was orally administered, and 1 hour later, a 0.1% Carrageenan (CG) solution or PBS was subcutaneously injected into the right or left sole of the mouse. Fluorescent images were obtained using IVIS Lumina III at the designated time.
The inflammation model induced by λ-carrageenan in the mouse foot region is an acute arthritis model and is useful when checking the effect of suppressing edema due to osteoarthritis. […]

iNOS = iNOS (Mus musculus (Mouse), UniProt P29477); experiment: iNOS protein expression, Western blot; format: cell-based; conditions: LPS-stimulated Raw264.7; 12 μM, 25 μM, 50 μM
Protocol: as §3

Chain of PPARδ ligand-binding domain (LBD) (Q03181 211-439): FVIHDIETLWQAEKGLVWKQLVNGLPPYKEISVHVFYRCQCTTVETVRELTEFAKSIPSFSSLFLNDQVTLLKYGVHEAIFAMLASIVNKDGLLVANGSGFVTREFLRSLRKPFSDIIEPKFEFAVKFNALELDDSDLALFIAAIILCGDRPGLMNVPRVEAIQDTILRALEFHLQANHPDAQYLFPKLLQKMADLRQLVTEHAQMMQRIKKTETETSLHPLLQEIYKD

Row | Structure (SMILES) | EC50 [1] [µM] | further results
1 | Cc1cc(SCc2nnc(-c3ccc(F)cc3)s2)ccc1OCC(=O)O [Example 9, 2-(4-(((5-(4-fluorophenyl)-1,3,4-thiadiazol-2-yl)methyl)thio)-2-methylphenoxy)acetic acid] | 2.44 | 
2 | Cc1cc(SCc2nnc(-c3ccc(OC(F)(F)F)cc3)s2)ccc1OC(C)(C)C(=O)O [Example 27, 2-methyl-2-(2-methyl-4-(((5-(4-(trifluoromethoxy)phenyl)-1,3,4-thiadiazol-2-yl)methyl)thio)phenoxy)propanoic acid] | 0.595 | 
3 | Cc1cc(SCc2nnc(-c3ccc(F)c(F)c3)s2)ccc1OC(C)C(=O)O (stereo not shown) [Example 13, 2-(4-(((5-(3,4-difluorophenyl)-1,3,4-thiadiazol-2-yl)methyl)thio)-2-methylphenoxy)propanoic acid] | 6.16 | 
4 | Cc1cc(SCc2nnc(-c3ccc(F)c(F)c3)s2)ccc1OCC(=O)O [Example 12, 2-(4-(((5-(3,4-difluorophenyl)-1,3,4-thiadiazol-2-yl)methyl)thio)-2-methylphenoxy)acetic acid] | 0.663 | 
5 | Cc1cc(SCc2nnc(-c3ccc(OC(F)(F)F)cc3)s2)ccc1OC(C)C(=O)O (stereo not shown) [Example 26, 2-(2-methyl-4-(((5-(4-(trifluoromethoxy)phenyl)-1,3,4-thiadiazol-2-yl)methyl)thio)phenoxy)propanoic acid] | 1.24 | 
6 | Cc1cc(SCc2nnc(-c3cc(F)c(F)c(F)c3)s2)ccc1OCC(=O)O [Example 15, 2-(2-methyl-4-(((5-(3,4,5-trifluorophenyl)-1,3,4-thiadiazol-2-yl)methyl)thio)phenoxy)acetic acid] | 4.01 | 
7 | Cc1cc(SCc2nnc(-c3ccc(C(F)(F)F)cc3)s2)ccc1OC(C)(C)C(=O)O [Example 3, 2-methyl-2-(2-methyl-4-(((5-(4-(trifluoromethyl)phenyl)-1,3,4-thiadiazol-2-yl)methyl)thio)phenoxy)propanoic acid] | 0.374 | 
8 | Cc1cc(SCc2nnc(-c3ccc(C(F)(F)F)c(F)c3)s2)ccc1OC(C)(C)C(=O)O [Example 21, 2-(4-(((5-(3-fluoro-4-(trifluoromethyl)phenyl)-1,3,4-thiadiazol-2-yl)methyl)thio)-2-methylphenoxy)-2-methylpropanoic acid] | 2.66 | 
9 | Cc1cc(SCc2nnc(-c3ccc(C(F)(F)F)cc3)s2)ccc1OCC(=O)O [Example 1, 2-(2-methyl-4-(((5-(4-(trifluoromethyl)phenyl)-1,3,4-thiadiazol-2-yl)methyl)thio)phenoxy)acetic acid] | 0.0399 | production of IL-6 (IL-6): effectively inhibited; NO concentration produced ([2]; compound 12.5 μM (0 μM control 22.8±1.3 μM)): 18.9 ± 0.3 µM; NO concentration produced ([2]; compound 25 μM (0 μM control 22.8±1.3 μM)): 14.8 ± 0.54 µM; NO concentration produced ([2]; compound 50 μM (0 μM control 22.8±1.3 μM)): 2.41 ± 0.24 µM; NF-κb-luciferase luminescent signals (NF-κB): decreased in a concentration-dependent manner; pIKKαβ protein expression (pIKKαβ): effectively reduced; production of TNFα (TNF-α): effectively inhibited; cytotoxicity (CCK8 assay, cell proliferation) (RAW 264.7 cells): no cytotoxicity at all concentrations; fluorescent signal of labeled macrophages in sole injected with 0.1% CG [3]: lower fluorescent signal; iNOS protein expression (iNOS): significantly suppressed
10 | Cc1cc(SCc2nnc(-c3ccc(C(F)(F)F)cc3)s2)ccc1OCC(=O)NC#N [Example 8, N-cyano-2-(2-methyl-4-(((5-(4-(trifluoromethyl)phenyl)-1,3,4-thiadiazol-2-yl)methyl)thio)phenoxy)acetamide] | 0.504 | 
11 | Cc1cc(SCc2nnc(-c3ccc(C(F)(F)F)cc3)s2)ccc1OC(C)C(=O)O (stereo not shown) [Example 2, 2-(2-methyl-4-(((5-(4-(trifluoromethyl)phenyl)-1,3,4-thiadiazol-2-yl)methyl)thio)phenoxy)propanoic acid] | 0.42 | 
12 | Cc1cc(SCc2nnc(-c3ccc(OC(F)(F)F)cc3)s2)ccc1OCC(=O)O [Example 25, 2-(2-methyl-4-(((5-(4-(trifluoromethoxy)phenyl)-1,3,4-thiadiazol-2-yl)methyl)thio)phenoxy)acetic acid] | 0.042 | 
13 | Cc1ccc(-c2nnc(CSc3ccc(OC(C)C(=O)O)c(C)c3)s2)cc1 (stereo not shown) [Example 23, 2-(2-methyl-4-(((5-(p-tolyl)-1,3,4-thiadiazol-2-yl)methyl)thio)phenoxy)propanoic acid] | 5.7 | 
14 | Cc1ccc(-c2nnc(CSc3ccc(OC(C)(C)C(=O)O)c(C)c3)s2)cc1 [Example 24, 2-methyl-2-(2-methyl-4-(((5-(p-tolyl)-1,3,4-thiadiazol-2-yl)methyl)thio)phenoxy)propanoic acid] | 1.25 | 
15 | Cc1cc(SCc2nnc(-c3ccc(F)c(Cl)c3)s2)ccc1OCC(=O)O [Example 16, 2-(4-(((5-(3-chloro-4-fluorophenyl)-1,3,4-thiadiazol-2-yl)methyl)thio)-2-methylphenoxy)acetic acid] | 1.35 | 
